Laboratory results as given in US8987195B2 (priority 2012, dated 2015).

Legend:
HCV genotype 1b replicon = assay: HCV replicon assay, genotype 1b replicon EC50; assay type: cell-based, Hepatitis C virus; conditions: Hepatitis C virus, HCV replicon, genotype 1b; read-out: EC50 [gt-1b]
Method in brief: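 Replicon cells (Neo^r, some luciferase:Neo^r fusion); G418 removed at plating; compound dilution series, 24-48 h. Readout: RNA by 32P-probe hybridization/protection or TaqMan, normalized to cyclophilin A RNA, or luciferase. EC50 vs DMSO control, 4-parameter fit.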

[1] = molecular target: HCV NS3/4A protease genotype 1b (Hepatitis C virus genotype 1b, UniProt P26663); assay: HCV NS3/4A protease time-resolved fluorescence (TRF) assay, Ki against genotype 1b; assay type: biochemical; conditions: IC50 [gt-1b], NS3/4A protease TRF assay, genotype 1b enzyme 0.2 nM
Method in brief: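 Time-resolved fluorescence readout of NS3/4A cleavage of 25 nM europium-labelled peptide over 2.5 h at room temperature, enzyme levels set for signal/background 10–30 (0.2, 0.4, 0.025 nM for 1b, A156T, 3a). Ki by IC50=Ki(1+[S]/KM).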

Row | SMILES | EC50 (HCV genotype 1b replicon) | IC50 [1]
1 | COc1ccc2nc(C(F)F)c3c(c2c1)CC[C@]1(C[C@H]2C(=O)N[C@]4(C(=O)NS(=O)(=O)C5(C)CC5)C[C@H]4/C=C\CCCCC[C@H](NC(=O)OC(C)C)C(=O)N2C1)O3 [Example 446, propan-2-yl [(2R,6S,12Z,13aS,14aR,16aS)-5′-(difluoromethyl)-9′-methoxy-14a-{[(1-methylcyclopropyl)sulfonyl]carbamoyl}-5,16-dioxo-1,1′,2′,5,6,7,8,9,10,11,13a,14,14a,15,16,16a-hexadecahydrospiro[cyclopropa[e]pyrrolo[1,2-a][1,4]diazacyclopentadecine-2,3′-pyrano[2,3-c]quinolin]-6-yl]carbamate] | 1.17 nM | 0.013 nM
2 | COc1ccc2nc(C(F)(F)F)c3c(c2c1)CC[C@]1(C[C@H]2C(=O)N[C@]4(C(=O)NS(=O)(=O)C5(C)CC5)C[C@H]4/C=C\CCCCC[C@H](NC(=O)OC(C)C)C(=O)N2C1)O3 [Example 447, propan-2-yl [(2R,6S,12Z,13aS,14aR,16aS)-9′-methoxy-14a-{[(1-methylcyclopropyl)sulfonyl]carbamoyl}-5,16-dioxo-5′-(trifluoromethyl)-1,1′,2′,5,6,7,8,9,10,11,13a,14,14a,15,16,16a-hexadecahydrospiro[cyclopropa[e]pyrrolo[1,2-a][1,4]diazacyclopentadecine-2,3′-pyrano[2,3-c]quinolin]-6-yl]carbamate] | 1.37 nM | 0.019 nM
3 | CCCOC(=O)N[C@H]1CCCCC/C=C\[C@@H]2C[C@@]2(C(=O)NS(=O)(=O)C2(C)CC2)NC(=O)[C@@H]2C[C@]3(CCc4c(c(C(F)(F)F)nc5ccc(OC)cc45)O3)CN2C1=O [Example 448, propyl [(2R,6S,12Z,13aS,14aR,16aS)-9′-methoxy-14a-{[(1-methylcyclopropyl)sulfonyl]carbamoyl}-5,16-dioxo-5′-(trifluoromethyl)-1,1′,2′,5,6,7,8,9,10,11,13a,14,14a,15,16,16a-hexadecahydrospiro[cyclopropa[e]pyrrolo[1,2-a][1,4]diazacyclopentadecine-2,3′-pyrano[2,3-c]quinolin]-6-yl]carbamate] | 2.69 nM | 0.006 nM
4 | COc1ccc2nc(C(F)(F)F)c3c(c2c1)CC[C@]1(C[C@H]2C(=O)N[C@]4(C(=O)NS(=O)(=O)C5(C)CC5)C[C@H]4/C=C\CCCCC[C@H](NC(=O)OC4(C(C)C)CC4)C(=O)N2C1)O3 [Example 449, 1-(propan-2-yl)cyclopropyl [(2R,6S,12Z,13aS,14aR,16aS)-9′-methoxy-14a-{[(1-methylcyclopropyl)sulfonyl]carbamoyl}-5,16-dioxo-5′-(trifluoromethyl)-1,1′,2′,5,6,7,8,9,10,11,13a,14,14a,15,16,16a-hexadecahydrospiro[cyclopropa[e]pyrrolo[1,2-a][1,4]diazacyclopentadecine-2,3′-pyrano[2,3-c]quinolin]-6-yl]carbamate] | 1.39 nM | 0.007 nM
5 | COc1ccc2nc(C(F)(F)F)c3c(c2c1)CC[C@]1(C[C@H]2C(=O)N[C@]4(C(=O)NS(=O)(=O)C5(C)CC5)C[C@H]4/C=C\CCCCC[C@H](NC(=O)OC4CCC4)C(=O)N2C1)O3 [Example 450, cyclobutyl [(2R,6S,12Z,13aS,14aR,16aS)-9′-methoxy-14a-{[(1-methylcyclopropyl)sulfonyl]carbamoyl}-5,16-dioxo-5′-(trifluoromethyl)-1,1′,2′,5,6,7,8,9,10,11,13a,14,14a,15,16,16a-hexadecahydrospiro[cyclopropa[e]pyrrolo[1,2-a][1,4]diazacyclopentadecine-2,3′-pyrano[2,3-c]quinolin]-6-yl]carbamate] | 1.69 nM | 0.019 nM
